{"source": "paper PMC3117861", "about": "“Analysis of Proteasomal Proteolysis during the In Vitro Metacyclogenesis of Trypanosoma cruzi” (PLoS ONE, 2011)", "target": "T1, 20S proteasome (Trypanosoma cruzi, UniProt V5BU39)", "T1 construct": "gene TCDM_03188; ATP in assay, so 20S and 26S forms not separated; with Proteasome subunit beta type-1; Proteasome subunit beta type-2; Proteasome subunit beta type-3; Proteasome subunit beta type-4; Proteasome subunit beta type-7; Proteasome subunit alpha type-1; Proteasome subunit alpha type-2; Proteasome subunit alpha type-3; Proteasome subunit alpha type-4; Proteasome subunit alpha type-5; Proteasome subunit alpha type-6; Proteasome subunit alpha type-7", "test": "fluorimetric peptidase assay in crude extract", "type": "biochemical", "settings": "read-out: % inhibition at 50 μM (chymotrypsin-like activity)", "note": "Where a SMILES comes first, the peptide text is derived from it. The star is where a group is joined. Cbz = O=C(OCc1ccccc1)*", "data": [{"smiles": "CC(C)C[C@@H](C=O)NC(=O)[C@H](CC(C)C)NC(=O)[C@H](CC(C)C)NC(=O)OCc1ccccc1", "note": "[MG132] (Cbz-Leu-Leu-Leu-aldehyde)", "values": [{"measurement": "inhibition at 50 µM", "value": 95, "unit": "%"}]}]}
